Test results from PMC7414322 (Bioorganic & Medicinal Chemistry Letters, 2020).
Like-named read-outs stand apart in the source and are kept apart here.

How the values were obtained:
[1] = mouse, microsomes
[2] = human, microsomes
in vivo = conditions: rat, po, 5 mg/kg
hERG = hERG (Homo sapiens, UniProt Q12809)
Sequence of hERG (Q12809 whole entry): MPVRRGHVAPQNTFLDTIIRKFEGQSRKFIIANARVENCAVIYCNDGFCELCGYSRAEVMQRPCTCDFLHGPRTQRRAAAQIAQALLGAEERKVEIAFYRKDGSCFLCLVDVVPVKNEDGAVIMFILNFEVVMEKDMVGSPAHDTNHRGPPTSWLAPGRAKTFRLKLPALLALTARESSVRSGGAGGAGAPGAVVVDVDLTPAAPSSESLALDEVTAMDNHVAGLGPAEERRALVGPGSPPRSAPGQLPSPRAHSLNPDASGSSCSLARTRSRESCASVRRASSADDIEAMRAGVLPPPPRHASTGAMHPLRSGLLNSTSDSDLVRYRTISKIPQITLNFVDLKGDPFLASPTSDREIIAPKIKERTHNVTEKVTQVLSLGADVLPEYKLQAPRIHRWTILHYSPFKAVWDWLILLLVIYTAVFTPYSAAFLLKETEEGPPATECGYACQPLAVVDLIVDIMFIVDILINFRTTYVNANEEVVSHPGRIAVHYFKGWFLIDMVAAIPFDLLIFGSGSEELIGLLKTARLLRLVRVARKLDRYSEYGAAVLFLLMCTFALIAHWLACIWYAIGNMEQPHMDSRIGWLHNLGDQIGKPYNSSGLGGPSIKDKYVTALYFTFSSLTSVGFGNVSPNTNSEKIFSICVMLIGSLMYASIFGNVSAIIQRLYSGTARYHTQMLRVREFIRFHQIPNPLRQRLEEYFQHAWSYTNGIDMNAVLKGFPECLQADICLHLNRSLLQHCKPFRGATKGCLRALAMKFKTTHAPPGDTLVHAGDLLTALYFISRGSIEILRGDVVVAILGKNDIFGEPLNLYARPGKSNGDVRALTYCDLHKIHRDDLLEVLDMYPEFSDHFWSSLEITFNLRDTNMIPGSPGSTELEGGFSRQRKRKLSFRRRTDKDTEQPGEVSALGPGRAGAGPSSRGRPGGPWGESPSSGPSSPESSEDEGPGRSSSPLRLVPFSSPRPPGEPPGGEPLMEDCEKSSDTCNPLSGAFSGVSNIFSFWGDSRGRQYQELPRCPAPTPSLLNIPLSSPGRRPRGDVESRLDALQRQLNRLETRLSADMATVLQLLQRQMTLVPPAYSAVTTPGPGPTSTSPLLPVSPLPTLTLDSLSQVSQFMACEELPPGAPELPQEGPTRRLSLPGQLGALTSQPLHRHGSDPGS

With COc1cccc(CNc2ccc3ncnc(Nc4ccc(Br)cc4)c3c2)c1 [Compound 6] the “Inhibitory effect on MERS-CoV infection, in words” value (shortened to “Inhibitory effect”) (MERS-CoV) was “maintained the potency”.
For COc1cccc(CNc2ccc3ncnc(Nc4ccc(F)cc4)c3c2)c1 [Compound 7], the “Inhibitory effect” value (MERS-CoV) was “reduced potency compared to 1”.
In the case of COc1cccc(CNc2ccc3ncnc(Nc4cccc(Cl)c4)c3c2)c1 [Compound 8], the “Inhibitory effect” value (MERS-CoV) is reported as “reduced potency compared to 1”.
With COc1cccc(CNc2ccc3ncnc(Nc4ccc(C#N)cc4)c3c2)c1 [Compound 9] the “Inhibitory effect” value (MERS-CoV) was “reduced potency compared to 1”.
With COc1cccc(CNc2ccc3ncnc(Nc4ccc(C(F)(F)F)cc4)c3c2)c1 [Compound 11] the “Inhibitory effect” value (MERS-CoV) was “slightly improve the potency”.
For N#Cc1ccccc1CNc1ccc2ncnc(Nc3ccc(F)c(Cl)c3)c2c1 [Compound 19], the “Inhibitory effect” value (MERS-CoV) was “no inhibitory effect”.
In the case of N#Cc1cccc(CNc2ccc3ncnc(Nc4ccc(F)c(Cl)c4)c3c2)c1 [Compound 20], the “Cytotoxicity, in words” value (NIH 3T3) is reported as “no cytotoxicity”, the “Cytotoxicity NIH 3T3” value (NIH 3T3; mouse) is reported as over 100 µM and the “Cytotoxicity, in words” value (CHO-K1) is reported as “no cytotoxicity”. The “Cytotoxicity CHO-K1” value (CHO-K1; Chinese hamster) was over 100 µM, the “Cytotoxicity, in words” value (Vero) was “no cytotoxicity” and the “Cytotoxicity Vero” value (Vero; African green monkey) was over 100 µM. The “Cytotoxicity, in words” value (HFL-1) was “no cytotoxicity”, the “Cytotoxicity HFL-1” value (HFL-1; human) was over 100 µM and the “Microsomal stability, in words” value [1] was “good microsomal stability”. The “Microsomal stability, in words” value [2] was “good microsomal stability”, the “Cytotoxicity, in words” value (L929) was “no cytotoxicity” and the “Cytotoxicity L929” value (L929; mouse) was over 100 µM. For the same compound, the Cmax (in vivo) was 200 ng/mL and the “hERG binding, in words” value (hERG) was “no hERG binding”.
For Fc1ccc(Nc2ncnc3ccc(NC4CCCCC4)cc23)cc1Cl [Compound 25], the “Inhibitory effect” value (MERS-CoV) was “little inhibitory effects”.
For N#Cc1cccc(CNc2cc3c(Nc4ccc(F)c(Cl)c4)ncnc3cc2O)c1 [Compound 30], the “Inhibitory effect” value (MERS-CoV) was “no inhibitory effects”.
In the case of N#Cc1ccccc1CNc1ccc2ncnc(Nc3ccc(C(F)(F)F)cc3)c2c1 [Compound 31], the “Inhibitory effect” value (MERS-CoV) is reported as “decreased potency”.
